Data taken from ChEMBL document CHEMBL5029145, “Discovery of AZD8154, a Dual PI3Kγδ Inhibitor for the Treatment of Asthma” (J Med Chem, 2021).

Key:
[1] = target: Phosphatidylinositol 4,5-bisphosphate 3-kinase catalytic subunit gamma isoform (Homo sapiens, UniProt P48736); assay: Inhibition of recombinant human PI3Kgamma assessed as reduction in ADP production using Dic8-PIP2 as substrate pre-treated for 15 mins followed by substrate addition measured after 60 mins by ADP-glo assay
[2] = target: T1, Phosphatidylinositol 4,5-bisphosphate 3-kinase catalytic subunit delta isoform (Homo sapiens, UniProt O00329); assay: Inhibition of recombinant human PI3Kdelta assessed as reduction in ADP production using Dic8-PIP2 as substrate pre-treated for 15 mins followed by substrate addition measured after 60 mins by ADP-glo assay
T1 sequence (O00329 whole entry): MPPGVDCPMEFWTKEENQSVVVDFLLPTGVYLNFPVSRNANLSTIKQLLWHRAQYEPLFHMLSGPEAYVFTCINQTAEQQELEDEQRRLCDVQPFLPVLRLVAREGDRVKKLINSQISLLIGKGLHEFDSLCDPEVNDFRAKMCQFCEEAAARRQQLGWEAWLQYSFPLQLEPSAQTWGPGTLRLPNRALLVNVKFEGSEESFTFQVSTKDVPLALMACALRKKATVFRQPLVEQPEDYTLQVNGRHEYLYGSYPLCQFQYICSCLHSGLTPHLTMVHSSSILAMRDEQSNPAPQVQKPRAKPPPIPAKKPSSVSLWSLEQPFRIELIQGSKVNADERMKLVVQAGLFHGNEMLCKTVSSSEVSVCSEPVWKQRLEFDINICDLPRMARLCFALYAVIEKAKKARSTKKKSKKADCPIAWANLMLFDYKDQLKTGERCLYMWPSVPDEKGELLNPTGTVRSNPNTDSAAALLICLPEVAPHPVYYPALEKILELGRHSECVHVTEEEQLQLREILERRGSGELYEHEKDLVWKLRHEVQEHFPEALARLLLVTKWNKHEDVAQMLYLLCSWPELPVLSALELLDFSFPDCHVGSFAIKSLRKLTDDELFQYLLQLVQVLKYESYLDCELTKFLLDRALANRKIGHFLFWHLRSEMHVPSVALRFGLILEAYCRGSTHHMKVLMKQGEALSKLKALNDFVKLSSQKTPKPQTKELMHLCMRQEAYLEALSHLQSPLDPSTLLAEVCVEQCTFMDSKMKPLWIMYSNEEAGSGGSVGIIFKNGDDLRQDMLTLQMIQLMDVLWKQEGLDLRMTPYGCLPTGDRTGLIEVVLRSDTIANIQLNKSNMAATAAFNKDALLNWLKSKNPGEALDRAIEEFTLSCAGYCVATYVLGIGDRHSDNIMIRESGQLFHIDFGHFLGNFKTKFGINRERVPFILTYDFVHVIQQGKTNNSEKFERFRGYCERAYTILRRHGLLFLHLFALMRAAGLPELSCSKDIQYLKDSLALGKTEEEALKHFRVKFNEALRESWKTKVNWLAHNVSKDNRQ

[3] = target: Phosphatidylinositol 4,5-bisphosphate 3-kinase catalytic subunit alpha isoform (Homo sapiens, UniProt P42336); assay: Inhibition of recombinant human PI3Kalpha assessed as reduction in ADP production using Dic8-PIP2 as substrate pre-treated for 15 mins followed by substrate addition measured after 60 mins by ADP-glo assay
[4] = target: T1, Phosphatidylinositol 4,5-bisphosphate 3-kinase catalytic subunit delta isoform; assay: Inhibition of PI3Kdelta in anti-IgM-stimulated human JeKo-1 cells assessed as inhibition of AKT phosphorylation at Ser473 residue incubated for 60 mins by TR-FRET assay
[5] = target: Phosphatidylinositol 4,5-bisphosphate 3-kinase catalytic subunit gamma isoform (Mus musculus, UniProt Q9JHG7); assay: Inhibition of PI3Kgamma in C5a-stimulated mouse RAW 264 cells assessed as inhibition of AKT phosphorylation at Ser473 residue Pretreated for 15 mins followed by C5a stimulation measured after 3 mins by HTRF assay; type: cell-based
Phosphatidylinositol 4,5-bisphosphate 3-kinase catalytic subunit gamma isoform (Mus musculus, UniProt Q9JHG7), sequence (Q9JHG7 whole entry, canonical isoform): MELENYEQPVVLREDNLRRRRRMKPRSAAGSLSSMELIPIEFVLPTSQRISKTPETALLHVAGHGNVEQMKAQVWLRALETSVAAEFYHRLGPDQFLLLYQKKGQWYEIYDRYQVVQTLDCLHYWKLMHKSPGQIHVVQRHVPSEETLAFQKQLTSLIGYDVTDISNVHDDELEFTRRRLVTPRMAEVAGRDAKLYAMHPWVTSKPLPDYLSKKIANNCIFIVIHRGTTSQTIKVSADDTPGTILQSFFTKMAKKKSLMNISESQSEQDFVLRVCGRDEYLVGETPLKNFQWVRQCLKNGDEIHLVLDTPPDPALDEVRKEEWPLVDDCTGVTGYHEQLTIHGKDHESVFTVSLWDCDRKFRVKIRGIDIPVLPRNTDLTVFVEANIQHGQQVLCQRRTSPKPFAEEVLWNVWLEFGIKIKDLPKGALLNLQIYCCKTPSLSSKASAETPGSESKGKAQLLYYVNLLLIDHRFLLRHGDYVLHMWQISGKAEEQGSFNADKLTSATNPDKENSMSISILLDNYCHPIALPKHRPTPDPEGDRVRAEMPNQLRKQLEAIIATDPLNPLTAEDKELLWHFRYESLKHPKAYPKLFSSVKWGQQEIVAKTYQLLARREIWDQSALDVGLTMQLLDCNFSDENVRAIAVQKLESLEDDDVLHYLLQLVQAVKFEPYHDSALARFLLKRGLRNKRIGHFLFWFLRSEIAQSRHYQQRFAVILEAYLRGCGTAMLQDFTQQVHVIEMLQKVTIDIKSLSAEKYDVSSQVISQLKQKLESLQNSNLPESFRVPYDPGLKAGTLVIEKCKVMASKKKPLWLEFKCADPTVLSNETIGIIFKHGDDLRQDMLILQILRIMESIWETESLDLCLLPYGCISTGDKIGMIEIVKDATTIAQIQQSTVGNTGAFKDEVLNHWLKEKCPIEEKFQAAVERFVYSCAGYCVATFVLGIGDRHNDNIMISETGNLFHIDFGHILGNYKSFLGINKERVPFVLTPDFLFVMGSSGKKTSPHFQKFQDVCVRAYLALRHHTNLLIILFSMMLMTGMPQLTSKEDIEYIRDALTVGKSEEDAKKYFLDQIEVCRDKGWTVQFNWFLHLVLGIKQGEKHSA

Phosphatidylinositol 4,5-bisphosphate 3-kinase catalytic subunit alpha isoform, sequence (P42336 whole entry, canonical isoform): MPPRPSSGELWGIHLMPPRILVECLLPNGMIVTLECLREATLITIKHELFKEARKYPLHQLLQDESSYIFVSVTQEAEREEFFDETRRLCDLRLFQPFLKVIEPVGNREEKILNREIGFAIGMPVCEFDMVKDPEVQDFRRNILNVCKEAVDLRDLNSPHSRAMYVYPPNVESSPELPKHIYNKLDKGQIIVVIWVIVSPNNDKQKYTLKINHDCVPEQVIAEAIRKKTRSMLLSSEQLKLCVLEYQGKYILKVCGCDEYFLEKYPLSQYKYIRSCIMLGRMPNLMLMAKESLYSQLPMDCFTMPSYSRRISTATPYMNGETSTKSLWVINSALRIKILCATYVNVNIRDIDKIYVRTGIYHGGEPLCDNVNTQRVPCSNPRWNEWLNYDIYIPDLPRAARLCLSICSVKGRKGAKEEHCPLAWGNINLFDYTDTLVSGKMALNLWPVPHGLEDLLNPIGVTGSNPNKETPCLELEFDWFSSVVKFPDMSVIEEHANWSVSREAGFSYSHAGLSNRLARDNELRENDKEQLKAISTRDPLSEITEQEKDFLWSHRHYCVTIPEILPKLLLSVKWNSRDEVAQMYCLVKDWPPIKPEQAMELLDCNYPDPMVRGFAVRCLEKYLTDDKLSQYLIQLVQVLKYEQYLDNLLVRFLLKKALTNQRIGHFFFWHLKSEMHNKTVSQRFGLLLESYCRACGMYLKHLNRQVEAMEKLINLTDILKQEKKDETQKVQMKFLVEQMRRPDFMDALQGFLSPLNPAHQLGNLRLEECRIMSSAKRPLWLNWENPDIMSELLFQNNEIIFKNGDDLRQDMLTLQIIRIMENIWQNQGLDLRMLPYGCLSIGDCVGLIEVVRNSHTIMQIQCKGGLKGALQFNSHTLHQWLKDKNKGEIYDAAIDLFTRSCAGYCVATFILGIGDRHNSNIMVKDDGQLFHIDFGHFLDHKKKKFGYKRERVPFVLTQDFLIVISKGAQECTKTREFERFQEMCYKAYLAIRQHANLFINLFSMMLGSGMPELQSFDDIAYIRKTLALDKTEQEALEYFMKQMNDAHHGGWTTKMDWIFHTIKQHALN
Phosphatidylinositol 4,5-bisphosphate 3-kinase catalytic subunit gamma isoform (Homo sapiens, UniProt P48736), sequence (P48736 whole entry, canonical isoform): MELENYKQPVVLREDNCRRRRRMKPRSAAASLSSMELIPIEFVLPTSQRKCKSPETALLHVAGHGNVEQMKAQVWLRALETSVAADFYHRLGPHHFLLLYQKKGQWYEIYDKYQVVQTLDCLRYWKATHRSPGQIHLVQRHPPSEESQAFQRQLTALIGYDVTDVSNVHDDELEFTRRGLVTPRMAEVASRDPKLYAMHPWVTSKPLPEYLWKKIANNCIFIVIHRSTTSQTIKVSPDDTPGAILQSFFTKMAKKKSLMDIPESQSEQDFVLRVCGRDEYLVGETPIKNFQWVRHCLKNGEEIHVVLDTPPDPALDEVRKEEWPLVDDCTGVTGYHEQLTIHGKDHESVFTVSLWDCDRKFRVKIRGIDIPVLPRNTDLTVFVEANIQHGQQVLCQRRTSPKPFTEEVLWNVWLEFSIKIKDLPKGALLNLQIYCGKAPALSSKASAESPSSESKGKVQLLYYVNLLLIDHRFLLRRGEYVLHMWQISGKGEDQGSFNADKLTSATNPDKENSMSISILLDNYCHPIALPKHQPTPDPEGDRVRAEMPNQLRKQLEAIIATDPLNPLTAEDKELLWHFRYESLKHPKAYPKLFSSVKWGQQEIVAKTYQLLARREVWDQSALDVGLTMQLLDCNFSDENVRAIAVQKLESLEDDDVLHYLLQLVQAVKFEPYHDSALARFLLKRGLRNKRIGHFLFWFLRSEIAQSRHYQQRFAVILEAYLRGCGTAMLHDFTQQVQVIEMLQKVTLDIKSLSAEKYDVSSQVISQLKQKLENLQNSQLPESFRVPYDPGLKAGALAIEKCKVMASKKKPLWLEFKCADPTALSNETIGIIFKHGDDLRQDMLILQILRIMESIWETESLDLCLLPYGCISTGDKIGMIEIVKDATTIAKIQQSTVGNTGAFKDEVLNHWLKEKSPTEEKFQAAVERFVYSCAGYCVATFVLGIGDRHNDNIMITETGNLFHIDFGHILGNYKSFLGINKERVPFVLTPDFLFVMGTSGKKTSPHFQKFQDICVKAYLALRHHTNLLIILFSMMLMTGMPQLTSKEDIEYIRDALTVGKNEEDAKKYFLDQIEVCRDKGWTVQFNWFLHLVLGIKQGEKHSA

Row | SMILES | IC50 [1] | IC50 [2] | IC50 [3] | IC50 [4] | IC50 [5]
1 | CC(=O)Nc1nc(C)c(-c2cc3c(c(S(=O)(=O)N(C)c4ccc(CN(C)C)cc4)c2)C(=O)N([C@@H](C)C2CC2)C3)s1 | 2.51 nM | 25.1 nM | – | – | –
2 | CNS(=O)(=O)c1cc(-c2sc(Nc3ccc(C(=O)NCCCN(C)C)cn3)nc2C)cc2c1C(=O)N([C@@H](C)C1CC1)C2 | 1.26 nM | 6.31 nM | – | – | –
3 | CC(=O)Nc1nc(C)c(-c2cc3c(c(S(=O)(=O)Nc4cc(C#N)cc(S(C)(=O)=O)c4)c2)C(=O)N([C@@H](C)C2CC2)C3)s1 | – | 25.1 nM | – | – | –
4 | CC(=O)Nc1nc(C)c(-c2cc3c(c(S(=O)(=O)N(C)c4cccc(C#N)c4)c2)C(=O)N([C@@H](C)C2CC2)C3)s1 | 0.794 nM | 50.1 nM | – | – | –
5 | COCCNC(=O)c1cccc(Nc2nc(C)c(-c3cc4c(c(S(C)(=O)=O)c3)C(=O)N([C@@H](C)C3CC3)C4)s2)n1 | 0.794 nM | 5.01 nM | – | – | –
6 | CC(=O)Nc1nc(C)c(-c2cc3c(c(S(=O)(=O)Nc4cccc(CN(C)C)c4)c2)C(=O)N([C@@H](C)C2CC2)C3)s1 | 2 nM | 15.8 nM | – | – | –
7 | CC(=O)Nc1nc(C)c(-c2cc3c(c(S(=O)(=O)Nc4ccc(S(C)(=O)=O)cc4)c2)C(=O)N([C@@H](C)C2CC2)C3)s1 | 1 nM | 158 nM | – | – | –
8 | Cc1nc(Nc2cccc(-c3ocnc3CO)n2)sc1-c1cc2c(c(S(C)(=O)=O)c1)C(=O)N([C@@H](C)C1CC1)C2 | 0.631 nM | 2 nM | – | – | –
9 | Cc1nc(Nc2cccc(-c3nc(C)n(C)n3)n2)sc1-c1cc2c(c(S(C)(=O)=O)c1)C(=O)N([C@@H](C)C1CC1)C2 | 1 nM | 25.1 nM | – | – | –
10 | CC(=O)Nc1nc(C)c(-c2cc3c(c(S(=O)(=O)Nc4cccc(S(C)(=O)=O)c4)c2)C(=O)N([C@@H](C)C2CC2)C3)s1 | 1.26 nM | 3.16 nM | – | 31.6 nM | 15.8 nM
11 | CC(=O)Nc1nc(C)c(-c2cc3c(c(S(=O)(=O)Nc4ccccc4)c2)C(=O)N([C@@H](C)C2CC2)C3)s1 | 1 nM | 50.1 nM | – | – | –
12 | CC(=O)Nc1cccc(Nc2nc(C)c(-c3cc4c(c(S(C)(=O)=O)c3)C(=O)N([C@@H](C)C3CC3)C4)s2)n1 | 1 nM | 15.8 nM | – | – | –
13 | CCN(CC)C(=O)c1cccc(Nc2nc(C)c(-c3cc4c(c(S(=O)(=O)NC)c3)C(=O)N([C@@H](C)C3CC3)C4)s2)n1 | 3.16 nM | 158 nM | – | – | –
14 | CC(=O)Nc1nc(C)c(-c2cc3c(c(S(=O)(=O)Nc4cccc(C#N)c4)c2)C(=O)N([C@@H](C)C2CC2)C3)s1 | – | 10 nM | – | 126 nM | –
15 | Cc1nc(Nc2cccc(N3CCOCC3=O)n2)sc1-c1cc2c(c(S(C)(=O)=O)c1)C(=O)N([C@@H](C)C1CC1)C2 | – | – | 50.1 nM | – | –
16 | CNS(=O)(=O)c1cc(-c2sc(Nc3cccc(N4CCCCC4=O)n3)nc2C)cc2c1C(=O)N([C@@H](C)C1CC1)C2 | – | – | 20 nM | – | –
17 | CNS(=O)(=O)c1cc(-c2sc(Nc3cccc(C)n3)nc2C)cc2c1C(=O)N([C@@H](C)C1CC1)C2 | 1 nM | 50.1 nM | – | – | –
18 | CC(=O)Nc1nc(C)c(-c2cc3c(c(S(=O)(=O)Nc4ccc(C#N)cc4)c2)C(=O)N([C@@H](C)C2CC2)C3)s1 | 1 nM | 158 nM | – | – | –
19 | CNS(=O)(=O)c1cc(-c2sc(Nc3cccc(C(=O)NCCCN(C)C)n3)nc2C)cc2c1C(=O)N([C@@H](C)C1CC1)C2 | 3.16 nM | 3.98 nM | – | – | –
20 | CC(=O)Nc1nc(C)c(-c2cc3c(c(S(=O)(=O)Nc4ccc(CN(C)C)cc4)c2)C(=O)N([C@@H](C)C2CC2)C3)s1 | 2.51 nM | 6.31 nM | – | 50.1 nM | –
21 | CNS(=O)(=O)c1cc(-c2sc(Nc3cccc(N4CC[C@@H](O)C4=O)n3)nc2C)cc2c1C(=O)N([C@@H](C)C1CC1)C2 | – | – | 15.8 nM | 3.98 nM | 2.51 nM

More lines, in order of falling IC50 [2], values ahead:

Row | IC50 [1] | IC50 [2] | IC50 [3] | IC50 [4] | IC50 [5] | SMILES
22 | 1 nM | 1.58 nM | – | – | – | Cc1nc(-c2cccc(Nc3nc(C)c(-c4cc5c(c(S(C)(=O)=O)c4)C(=O)N([C@@H](C)C4CC4)C5)s3)n2)n(C)n1
23 | – | 1.58 nM | 39.8 nM | 6.31 nM | 1.26 nM | CNS(=O)(=O)c1cc(-c2sc(Nc3cccc(N4CCN(C)CC4=O)n3)nc2C)cc2c1C(=O)N([C@@H](C)C1CC1)C2
24 | – | 1.26 nM | – | – | – | CC(=O)N(C)c1cccc(Nc2nc(C)c(-c3cc4c(c(S(C)(=O)=O)c3)C(=O)N([C@@H](C)C3CC3)C4)s2)n1
25 | – | 1.26 nM | 20 nM | 3.98 nM | 1.26 nM | Cc1nc(Nc2cccc(N3CCCOC3=O)n2)sc1-c1cc2c(c(S(C)(=O)=O)c1)C(=O)N([C@@H](C)C1CC1)C2
26 | – | 1.26 nM | – | 7.94 nM | 2 nM | CNS(=O)(=O)c1cc(-c2sc(Nc3cccc(N4C[C@H](O)CC4=O)n3)nc2C)cc2c1C(=O)N([C@@H](C)C1CC1)C2
27 | – | 1.26 nM | 31.6 nM | 12.6 nM | 1.58 nM | Cc1nc(Nc2cccc(N3CCCCC3=O)n2)sc1-c1cc2c(c(S(C)(=O)=O)c1)C(=O)N([C@@H](C)C1CC1)C2
28 | 10 nM | 1 nM | – | 1 nM | 5.01 nM | Cc1nc2sc1-c1cc3c(c(c1)S(=O)(=O)Nc1ccc(cc1)CN(C)CCCCNC(=O)c1cccc(n1)N2)C(=O)N([C@@H](C)C1CC1)C3
29 | – | 0.794 nM | 126 nM | 5.01 nM | 1 nM | Cc1nc(Nc2cccc(N3CCCC3=O)n2)sc1-c1cc2c(c(S(=O)(=O)NC3COC3)c1)C(=O)N([C@@H](C)C1CC1)C2
30 | – | 0.794 nM | 39.8 nM | 6.31 nM | 3.98 nM | CNS(=O)(=O)c1cc(-c2sc(Nc3cccc(N4CCNCC4=O)n3)nc2C)cc2c1C(=O)N([C@@H](C)C1CC1)C2
31 | 7.94 nM | 0.794 nM | – | 1.58 nM | 3.98 nM | Cc1nc2sc1-c1cc3c(c(c1)S(=O)(=O)Nc1ccc(cc1)CN(C)CCCNC(=O)c1cccc(n1)N2)C(=O)N([C@@H](C)C1CC1)C3
32 | – | 0.794 nM | – | 6.31 nM | 1 nM | CNS(=O)(=O)c1cc(-c2sc(Nc3cccc(N(C)C(C)=O)n3)nc2C)cc2c1C(=O)N([C@@H](C)C1CC1)C2
33 | – | 0.794 nM | 39.8 nM | 3.98 nM | 1 nM | Cc1nc(Nc2cccc(N3CCN(C)C3=O)n2)sc1-c1cc2c(c(S(C)(=O)=O)c1)C(=O)N([C@@H](C)C1CC1)C2
34 | – | 0.631 nM | 20 nM | 2.51 nM | 1 nM | CNS(=O)(=O)c1cc(-c2sc(Nc3cccc(N4CCCOC4=O)n3)nc2C)cc2c1C(=O)N([C@@H](C)C1CC1)C2
35 | – | 0.631 nM | 39.8 nM | 3.98 nM | 0.794 nM | CNS(=O)(=O)c1cc(-c2sc(Nc3cccc(N4CCOCC4=O)n3)nc2C)cc2c1C(=O)N([C@@H](C)C1CC1)C2
36 | 0.794 nM | 0.631 nM | 50.1 nM | 3.16 nM | 1 nM | Cc1nc2sc1-c1cc3c(c(c1)S(=O)(=O)NCCN(C)CCCNC(=O)c1cccc(n1)N2)C(=O)N([C@@H](C)C1CC1)C3
37 | – | 0.631 nM | 31.6 nM | 3.16 nM | 2 nM | Cc1nc(Nc2cccc(N3CCNC3=O)n2)sc1-c1cc2c(c(S(=O)(=O)NC3COC3)c1)C(=O)N([C@@H](C)C1CC1)C2
38 | 1.26 nM | 0.501 nM | 31.6 nM | 1.26 nM | 1.58 nM | Cc1nc2sc1-c1cc3c(c(c1)S(=O)(=O)NCCCCCNC(=O)c1cccc(n1)N2)C(=O)N([C@@H](C)C1CC1)C3
